Experimental data as given in ChEMBL document CHEMBL5614386, “Design, synthesis, and biological evaluation of novel 1-amido-2-one-4-thio-deoxypyranose as potential antitumor agents for multiple myeloma” (Bioorg Med Chem, 2024).
The source made the active and inactive calls. The calls are words filed in the database; no cut-off is given here.

Legend:
NCI-H929 [1] = test: Anti-proliferative activity against human NCI-H929 cells assessed as inhibition cell growth at 5 uM incubated for 72 hrs by CCK-8 assay; format: functional, cell-based
ARP-1 [2] = test: Anti-proliferative activity against human ARP-1 cells assessed as inhibition cell growth at 5 uM incubated for 72 hrs by CCK-8 assay; format: functional, cell-based
[3] = Anti-proliferative activity against human ARP-1 cells assessed as inhibition cell growth at 5 uM incubated for 72 hrs by CCK-8 assay relative to control; format: functional; set-up: scale not given: the % may be the effect or the level left
NCI-H929 [4] = test: Anti-proliferative activity against human NCI-H929 cells assessed as inhibition cell growth at 5 uM incubated for 72 hrs by CCK-8 assay relative to control; format: functional; set-up: scale not given: the % may be the effect or the level left
[5] = Anti-proliferative activity against human ARP-1cells assessed as cell growth inhibition incubated for 72 hrs by CCK-8 assay; settings: ARP-1, 72 h
NCI-H929 [6] = test: Anti-proliferative activity against human NCI-H929 cells assessed as cell growth inhibition incubated for 72 hrs by CCK-8 assay; settings: NCI-H929, 72 h
NCI-H929 [7] = test: Anti-proliferative activity against human NCI-H929 cells assessed as inhibition cell growth incubated for 72 hrs by CCK-8 assay; format: functional, cell-based
ARP-1 [8] = test: Anti-proliferative activity against human ARP-1 cells assessed as inhibition cell growth incubated for 72 hrs by CCK-8 assay; format: functional, cell-based

SMILES | Activity (NCI-H929 [1]) | Activity (ARP-1 [2]) | Activity [3] | Activity (NCI-H929 [4]) | also measured
CC(=O)OC[C@H]1O[C@@H](NC(=O)c2ccccc2)C(=O)CC1SCCNC(=O)OC(C)(C)C (stereo partly specified) | Active | Active |  |  | 
COc1ccc(SC2CC(O)[C@H](NC(=O)c3ccccc3)O[C@@H]2COC(C)=O)cc1 (stereo partly specified) |  |  | <20% | <20% | 
CC(=O)OC[C@H]1O[C@@H](NC(=O)c2ccccc2)C(=O)CC1SCc1ccc(F)cc1 (stereo partly specified) | Active | Active |  |  | 
CC(=O)OC[C@H]1O[C@@H](NC(=O)c2ccc3c(c2)OCO3)C(O)CC1Sc1cc(C)cc(C)c1 (stereo partly specified) |  |  | <20% | <20% | 
COc1ccc(SC2CC(O)[C@H](NC(=O)c3ccc4c(c3)OCO4)O[C@@H]2COC(C)=O)cc1 (stereo partly specified) |  |  | <20% | <20% | 
CC(=O)OC[C@H]1O[C@@H](NC(=O)c2ccc3c(c2)OCO3)C(=O)CC1Sc1cc(C)cc(C)c1 (stereo partly specified) | Active | Active |  |  | IC50 [5]: 2290 nM; IC50 (NCI-H929 [6]): 1970 nM
COc1ccc(SC2CC(O)[C@H](NC(=O)c3ccc(OC)cc3)O[C@@H]2COC(C)=O)cc1 (stereo partly specified) |  |  | <20% | <20% | 
CC(=O)OC[C@H]1O[C@@H](NC(=O)c2ccccc2)C(=O)CC1SCc1ccc(C(C)(C)C)cc1 (stereo partly specified) | Active | Active |  |  | 
COc1ccc(SC2CC(O)[C@H](NC(=O)c3ccc4c(c3)OCO4)O[C@@H]2COC(C)=O)cc1OC (stereo partly specified) |  |  | <20% | <20% | 
COc1ccc(CSC2CC(=O)[C@H](NC(=O)c3ccccc3)O[C@@H]2COC(C)=O)cc1 (stereo partly specified) | Active | Active |  |  | 
CC(=O)OC[C@H]1O[C@@H](NC(=O)c2ccc3c(c2)OCO3)C(O)CC1SCc1ccc(F)cc1 (stereo partly specified) |  |  | <20% | <20% | 
CC(=O)OC[C@H]1O[C@@H](NC(=O)c2ccccc2)C(=O)CC1Sc1ccc(F)cc1 (stereo partly specified) | Active | Active |  |  | 
CC(=O)OC[C@H]1O[C@@H](NC(=O)c2ccc3c(c2)OCO3)C(=O)CC1SCc1ccc(F)cc1 (stereo partly specified) | Active | Active |  |  | 
CC(=O)OC[C@H]1O[C@@H](NC(=O)c2ccccc2)C(O)CC1Sc1ccc(C)cc1 (stereo partly specified) |  |  | <20% | <20% | 
COc1ccc(CSC2CC(O)[C@H](NC(=O)c3ccccc3)O[C@@H]2COC(C)=O)cc1 (stereo partly specified) |  |  | <20% | <20% | 
COc1ccc(SC2CC(O)[C@H](NC(=O)c3ccc4c(c3)OCO4)O[C@@H]2CO)cc1 (stereo partly specified) |  |  |  |  | Activity (NCI-H929 [7]): Active; Activity (ARP-1 [8]): Active
COc1ccc(SC2CC(=O)[C@H](NC(=O)c3ccccc3)O[C@@H]2COC(C)=O)cc1 (stereo partly specified) | Active | Active |  |  | 
CC(=O)OC[C@H]1O[C@@H](NC(=O)c2ccc3c(c2)OCO3)C(=O)CC1SC1CCCC1 (stereo partly specified) | inactive | inactive |  |  | 
CC(=O)OC[C@H]1O[C@@H](NC(=O)c2ccc3c(c2)OCO3)C(=O)CC1SCc1ccc(C(C)(C)C)cc1 (stereo partly specified) | Active | Active |  |  | 
CC(=O)OC[C@H]1O[C@@H](NC(=O)c2ccccc2)C(=O)CC1SCc1ccco1 (stereo partly specified) | Active | Active |  |  | 
CC(=O)OC[C@H]1O[C@@H](NC(=O)c2ccccc2)C(O)CC1Sc1ccc(Br)cc1 (stereo partly specified) |  |  | <20% | <20% | 
CC(=O)OC[C@H]1O[C@@H](NC(=O)c2ccc3c(c2)OCO3)C(=O)CC1SCc1ccco1 (stereo partly specified) | Active | Active |  |  | IC50 [5]: 2710 nM; IC50 (NCI-H929 [6]): 3030 nM
CC(=O)OC[C@H]1O[C@@H](NC(=O)c2ccc3c(c2)OCO3)C(=O)CC1SCCc1cnccn1 (stereo partly specified) | Active | Active |  |  | 
CC(=O)OC[C@H]1O[C@@H](NC(=O)c2ccccc2)C(O)CC1Sc1ccc(F)cc1 (stereo partly specified) |  |  | <20% | <20% | 
CC(=O)OC[C@H]1O[C@@H](NC(=O)c2ccccc2)C(=O)CC1SCc1ccc(Cl)cc1 (stereo partly specified) | Active | Active |  |  | 
CC(=O)OC[C@H]1O[C@@H](NC(=O)c2ccc3c(c2)OCO3)C(O)CC1Sc1ccc(C)cc1 (stereo partly specified) |  |  | <20% | <20% | 

SMILES | Activity (NCI-H929 [1]) | Activity (ARP-1 [2]) | Activity [3] | Activity (NCI-H929 [4]) | also measured
COc1ccccc1SC1CC(=O)[C@H](NC(=O)c2ccc3c(c2)OCO3)O[C@@H]1COC(C)=O (stereo partly specified) | inactive | inactive |  |  | 
CC(=O)OC[C@H]1O[C@@H](NC(=O)c2ccccc2)C(=O)CC1Sc1ccc(Cl)cc1 (stereo partly specified) | Active | Active |  |  | IC50 [5]: 1040 nM; IC50 (NCI-H929 [6]): 2680 nM
COc1ccc(CSC2CC(=O)[C@H](NC(=O)c3ccc4c(c3)OCO4)O[C@@H]2COC(C)=O)cc1 (stereo partly specified) | Active | Active |  |  | 
CC(=O)OC[C@H]1O[C@@H](NC(=O)c2ccccc2)C(O)CC1Sc1ccc(Cl)cc1 (stereo partly specified) |  |  | <20% | <20% | 
CC(=O)OC[C@H]1O[C@@H](NC(=O)c2ccc3c(c2)OCO3)C(=O)CC1Sc1ccc(C)cc1 (stereo partly specified) | Active | Active |  |  | IC50 [5]: 1560 nM; IC50 (NCI-H929 [6]): 850 nM
CC(=O)OC[C@H]1O[C@@H](NC(=O)c2ccc3c(c2)OCO3)C(O)CC1SCc1ccc(Cl)cc1 (stereo partly specified) |  |  | <20% | <20% | 
COc1ccc(SC2CC(=O)[C@H](NC(=O)c3ccc4c(c3)OCO4)O[C@@H]2COC(C)=O)cc1 (stereo partly specified) | Active | Active |  |  | IC50 [5]: 1380 nM; IC50 (NCI-H929 [6]): 1460 nM
CC(=O)OC[C@H]1O[C@@H](NC(=O)c2ccc3c(c2)OCO3)C(O)CC1SCc1ccco1 (stereo partly specified) |  |  | <20% | <20% | 
COc1ccc(SC2CC(O)[C@H](NC(=O)c3ccc4c(c3)OCO4)O[C@@H]2CO)cc1OC (stereo partly specified) |  |  |  |  | Activity (NCI-H929 [7]): Active; Activity (ARP-1 [8]): Active
CNc1ccc(SC2CC(=O)[C@H](NC(=O)c3ccc4c(c3)OCO4)O[C@@H]2COC(C)=O)cc1 (stereo partly specified) | Active | Active |  |  | 
CC(=O)OC[C@H]1O[C@@H](NC(=O)c2ccc3c(c2)OCO3)C(=O)CC1SCc1ccc(Cl)cc1 (stereo partly specified) | Active | Active |  |  | 
CC(=O)OC[C@H]1O[C@@H](NC(=O)c2ccccc2)C(=O)CC1Sc1ccc(Br)cc1 (stereo partly specified) | Active | Active |  |  | 
CC(=O)OC[C@H]1O[C@@H](NC(=O)c2ccccc2)C(=O)CC1Sc1ccc(C)cc1 (stereo partly specified) | Active | Active |  |  | 
CC(=O)OC[C@H]1O[C@@H](NC(=O)c2ccc3c(c2)OCO3)C(=O)CC1SCCNC(=O)OC(C)(C)C (stereo partly specified) | Active | Active |  |  | 
COc1ccc(SC2CC(=O)[C@H](NC(=O)c3ccccc3)O[C@@H]2COC(C)=O)cc1OC (stereo partly specified) | Active | Active |  |  | 
CNc1ccc(SC2CC(O)[C@H](NC(=O)c3ccc4c(c3)OCO4)O[C@@H]2COC(C)=O)cc1 (stereo partly specified) |  |  | <20% | <20% | 
CC(=O)OC[C@H]1O[C@@H](NC(=O)c2ccc3c(c2)OCO3)C(=O)CC1SCCCCCCO (stereo partly specified) | Active | Active |  |  | 
COc1ccccc1SC1CC(=O)[C@H](NC(=O)c2ccccc2)O[C@@H]1COC(C)=O (stereo partly specified) | Active | Active |  |  | 
COc1ccc(SC2CC(=O)[C@H](NC(=O)c3ccc(OC)cc3)O[C@@H]2COC(C)=O)cc1 (stereo partly specified) | Active | Active |  |  | IC50 [5]: 1410 nM; IC50 (NCI-H929 [6]): 1200 nM
COc1ccc(SC2CC(=O)[C@H](NC(=O)c3ccco3)O[C@@H]2COC(C)=O)cc1 (stereo partly specified) | Active | Active |  |  | 
COc1ccc(C(=O)N[C@@H]2O[C@H](COC(C)=O)C(Sc3ccc(C)cc3)CC2=O)cc1 (stereo partly specified) | Active | Active |  |  | IC50 [5]: 4570 nM; IC50 (NCI-H929 [6]): 1600 nM
CC(=O)OC[C@H]1O[C@@H](NC(=O)c2ccccc2)C(=O)CC1SCCCCCCO (stereo partly specified) | Active | Active |  |  | 
CC(=O)OC[C@H]1O[C@@H](NC(=O)c2ccccc2)C(=O)CC1SCCc1cnccn1 (stereo partly specified) | Active | Active |  |  | 
COC1CC(=O)[C@H](NC(=O)c2ccc3c(c2)OCO3)O[C@@H]1COC(C)=O (stereo partly specified) | inactive | inactive |  |  | 
CC(=O)OC[C@H]1O[C@@H](NC(=O)c2ccccc2)C(O)CC1SCc1ccc(F)cc1 (stereo partly specified) |  |  | <20% | <20% | 
